Data: patent US20240083897A1, “GCN2 MODULATING COMPOUNDS AND USES THEREOF” (HiberCell, Inc., priority 2021, published 2024)

biological target: GCN2 (Homo sapiens (Human), UniProt Q9P2K8); assay: TR-FRET biochemical assay for inhibition of GCN2; conditions: not given
Sequence (Q9P2K8 whole entry): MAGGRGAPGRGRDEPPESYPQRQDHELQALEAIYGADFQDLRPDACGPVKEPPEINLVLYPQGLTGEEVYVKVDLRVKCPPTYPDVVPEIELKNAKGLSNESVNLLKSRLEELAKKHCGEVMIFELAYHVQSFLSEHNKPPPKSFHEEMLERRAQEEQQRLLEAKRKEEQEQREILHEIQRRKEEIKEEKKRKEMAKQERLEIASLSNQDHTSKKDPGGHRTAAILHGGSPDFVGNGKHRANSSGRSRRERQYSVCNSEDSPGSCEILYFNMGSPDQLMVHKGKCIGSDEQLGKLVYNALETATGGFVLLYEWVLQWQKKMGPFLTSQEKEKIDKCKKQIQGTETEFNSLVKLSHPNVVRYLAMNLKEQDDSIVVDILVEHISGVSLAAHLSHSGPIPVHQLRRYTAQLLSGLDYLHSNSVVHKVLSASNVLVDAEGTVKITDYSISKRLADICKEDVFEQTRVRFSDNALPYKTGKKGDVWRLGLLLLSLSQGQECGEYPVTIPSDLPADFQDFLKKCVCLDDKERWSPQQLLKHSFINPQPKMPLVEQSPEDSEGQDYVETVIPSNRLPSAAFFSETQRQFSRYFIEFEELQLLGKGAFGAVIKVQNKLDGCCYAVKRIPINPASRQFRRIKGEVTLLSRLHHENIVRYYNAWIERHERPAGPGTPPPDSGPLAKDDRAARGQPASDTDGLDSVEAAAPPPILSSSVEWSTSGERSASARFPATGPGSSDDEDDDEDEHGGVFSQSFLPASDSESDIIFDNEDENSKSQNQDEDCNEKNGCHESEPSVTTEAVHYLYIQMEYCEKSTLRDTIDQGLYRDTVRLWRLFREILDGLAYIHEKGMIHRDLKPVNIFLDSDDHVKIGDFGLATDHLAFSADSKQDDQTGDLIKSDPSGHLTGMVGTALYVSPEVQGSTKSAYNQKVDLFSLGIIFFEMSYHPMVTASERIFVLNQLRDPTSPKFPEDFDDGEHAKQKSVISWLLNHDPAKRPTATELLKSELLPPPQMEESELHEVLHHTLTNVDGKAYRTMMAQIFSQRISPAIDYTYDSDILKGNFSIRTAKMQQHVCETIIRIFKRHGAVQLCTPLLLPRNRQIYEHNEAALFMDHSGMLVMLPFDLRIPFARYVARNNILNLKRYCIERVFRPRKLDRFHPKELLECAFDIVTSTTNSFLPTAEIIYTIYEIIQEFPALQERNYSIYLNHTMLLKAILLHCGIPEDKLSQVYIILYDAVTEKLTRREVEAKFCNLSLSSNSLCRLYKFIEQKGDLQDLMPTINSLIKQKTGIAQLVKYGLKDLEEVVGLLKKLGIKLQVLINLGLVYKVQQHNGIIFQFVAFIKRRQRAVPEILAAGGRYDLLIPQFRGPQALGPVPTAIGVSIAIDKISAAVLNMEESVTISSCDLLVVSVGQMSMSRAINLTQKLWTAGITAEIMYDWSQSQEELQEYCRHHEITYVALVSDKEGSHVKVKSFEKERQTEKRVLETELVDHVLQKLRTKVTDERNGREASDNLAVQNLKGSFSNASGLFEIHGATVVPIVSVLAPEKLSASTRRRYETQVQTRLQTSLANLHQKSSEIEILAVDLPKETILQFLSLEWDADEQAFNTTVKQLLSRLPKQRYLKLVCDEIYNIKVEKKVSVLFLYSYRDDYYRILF

SMILES | IC50
CNC(=O)c1ncn2cc(-c3c(F)ccc(NS(=O)(=O)c4cc(Cl)cnc4OC(C)C)c3F)ncc12 [Compound 168, 6-[3-(5-chloro-2-isopropoxypyridine-3-sulfonamido)-2,6-difluorophenyl]-N-methylimidazo[1,5-a]pyrazine-1-carboxamide] | 50 to 500 nM
COc1ncc(C#N)cc1S(=O)(=O)Nc1ccc(F)c([C@H]2CCc3c(-c4ncc[nH]4)ncn3C2)c1F [Compound 82-1, 5-cyano-N-[2,4-difluoro-3-[(6R)-1-(1H-imidazol-2-yl)-5H,6H,7H,8H-imidazo[1,5-a]pyridin-6-yl]phenyl]-2-methoxypyridine-3-sulfonamide] | 50 to 500 nM
CNC(=O)c1ncn2c(C)c(-c3c(F)ccc(NS(=O)(=O)c4cc(Cl)cnc4OC)c3F)ccc12 [Compound 11, 6-[3-(5-chloro-2-methoxypyridine-3-sulfonamido)-2,6-difluorophenyl]-N,5-dimethyl imidazo[1,5-a]pyridine-1-carboxamide] | 50 to 500 nM
CNC(=O)c1ncn2c1CC[C@@H](c1c(F)ccc(NS(=O)(=O)c3cc(Cl)cnc3OC)c1F)C2 [Compound 27-2, (6S)-6-[3-(5-chloro-2-methoxypyridine-3-sulfonamido)-2,6-difluorophenyl]-N-methyl-5H,6H,7H,8H-imidazo[1,5-a]pyridine-1-carboxamide] | 50 to 500 nM
COc1ncc(Cl)cc1S(=O)(=O)Nc1ccc(F)c(-c2cn3cnc(C(=O)N[C@@H]4CCN(C)C4)c3cn2)c1F [Compound 173-1, (R)-6-(3-((5-chloro-2-methoxypyridine)-3-sulfonamido)-2,6-difluorophenyl)-N-(1-methylpyrrolidin-3-yl)imidazo[1,5-a]pyrazine-1-carboxamide] | 50 to 500 nM
COc1ncc(Cl)cc1S(=O)(=O)Nc1ccc(F)c(-c2ccc3c(-c4nnc(C(F)(F)F)[nH]4)ncn3c2)c1F [Compound 102, 5-chloro-N-(2,4-difluoro-3-[1-[5-(trifluoromethyl)-4H-1,2,4-triazol-3-yl]imidazo[1,5-a]pyridin-6-yl]phenyl)-2-methoxypyridine-3-sulfonamide] | 50 to 500 nM
COc1ncc(C#N)cc1S(=O)(=O)Nc1ccc(F)c(-c2ccc3c(-c4ccn(C)n4)ncn3c2)c1F [Compound 53, 5-cyano-N-[2,4-difluoro-3-[1-(1-methylpyrazol-3-yl)imidazo[1,5-a]pyridin-6-yl]phenyl]-2-methoxypyridine-3-sulfonamide] | 50 to 500 nM
CNC(=O)c1ncn2c1CCC(c1c(Cl)ccc(NS(=O)(=O)c3cc(F)cnc3OC)c1F)C2 (stereo in doubt) [Compound 155-2, (6S)-6-[6-chloro-2-fluoro-3-(5-fluoro-2-methoxypyridine-3-sulfonamido)phenyl]-N-methyl-5H,6H,7H,8H-imidazo[1,5-a]pyridine-1-carboxamide] | 50 to 500 nM
COc1ncc(Cl)cc1S(=O)(=O)Nc1ccc(F)c(-c2ccc3c(CO)ncn3c2)c1F [Compound 94, 5-chloro-N-(2,4-difluoro-3-(1-(hydroxymethyl)imidazo[1,5-a]pyridin-6-yl)phenyl)-2-methoxypyridine-3-sulfonamide] | 500 to 1000 nM
COc1ncc(C#N)cc1S(=O)(=O)Nc1ccc(F)c(-c2cn3cnc(-c4nnc(C)[nH]4)c3cn2)c1F [Compound 128, 5-cyano-N-[2,4-difluoro-3-[1-(5-methyl-4H-1,2,4-triazol-3-yl)imidazo[1,5-a]pyrazin-6-yl]phenyl]-2-methoxypyridine-3-sulfonamide] | 50 to 500 nM

same assay, conditions: GCN2 2 nM, 100 nM GFP-eIF2a, 150 μM ATP, TR-FRET

SMILES | IC50
COc1ncc(F)cc1S(=O)(=O)Nc1ccc(F)c([C@H]2CCc3c(-c4ncc[nH]4)ncn3C2)c1F [Compound 81-1, N-[2,4-difluoro-3-[(6R)-1-(1H-imidazol-2-yl)-5H,6H,7H,8H-imidazo[1,5-a]pyridin-6-yl]phenyl]-5-fluoro-2-methoxypyridine-3-sulfonamide] | < 50 nM
COC(=O)c1ccc2nc(-c3ncn4cc(-c5c(F)ccc(NS(=O)(=O)c6cc(F)cnc6OC)c5F)ncc34)[nH]c2c1 [Compound 153, methyl 2-[6-[2,6-difluoro-3-(5-fluoro-2-methoxypyridine-3-sulfonamido)phenyl]imidazo[1,5-a]pyrazin-1-yl]-3H-1,3-benzodiazole-5-carboxylate] | < 50 nM
COc1ncc(F)cc1S(=O)(=O)Nc1ccc(F)c([C@H]2CCc3c(-c4nnc(C)[nH]4)ncn3C2)c1F [Compound 131-2, N-[2,4-difluoro-3-[(6R)-1-(5-methyl-4H-1,2,4-triazol-3-yl)-5H,6H,7H,8H-imidazo[1,5-a]pyridin-6-yl]phenyl]-5-fluoro-2-methoxypyridine-3-sulfonamide] | < 50 nM
COc1ncc(Cl)cc1S(=O)(=O)Nc1ccc(F)c(-c2cn3cnc(C(=O)NCCS(C)(=O)=O)c3cn2)c1F [Compound 164, 6-[3-(5-chloro-2-methoxypyridine-3-sulfonamido)-2,6-difluorophenyl]-N-(2-methanesulfonylethyl)imidazo[1,5-a]pyrazine-1-carboxamide] | < 50 nM
COc1ncc(Cl)cc1S(=O)(=O)Nc1ccc(F)c(-c2ccc3c(-c4ncc[nH]4)ncn3c2F)c1F [Compound 104, 5-chloro-N-[2,4-difluoro-3-[5-fluoro-1-(1H-imidazol-2-yl)imidazo[1,5-a]pyridin-6-yl]phenyl]-2-methoxypyridine-3-sulfonamide] | < 50 nM
CNC(=O)c1ncn2c(NC)c(-c3c(F)ccc(NS(=O)(=O)c4cc(Cl)cnc4OC)c3F)ccc12 [Compound 24, 6-[3-(5-chloro-2-methoxypyridine-3-sulfonamido)-2,6-difluorophenyl]-N-methyl-5-(methylamino)imidazo[1,5-a]pyridine-1-carboxamide] | > 1000 nM
COc1ncc(Cl)cc1S(=O)(=O)Nc1ccc(F)c(-c2cn3cnc(-c4nc5ccccc5[nH]4)c3cn2)c1F [Compound 110, N-[3-[1-(1H-1,3-benzodiazol-2-yl)imidazo[1,5-a]pyrazin-6-yl]-2,4-difluorophenyl]-5-chloro-2-methoxypyridine-3-sulfonamide] | < 50 nM
Cc1ncc(F)cc1S(=O)(=O)Nc1ccc(F)c(-c2ccc3c(-c4ccno4)ncn3c2)c1F [Compound 125, N-[2,4-difluoro-3-[1-(1,2-oxazol-5-yl)imidazo[1,5-a]pyridin-6-yl]phenyl]-5-fluoro-2-methylpyridine-3-sulfonamide] | < 50 nM
COc1ncc(Cl)cc1S(=O)(=O)Nc1ccc(F)c(-c2cn3cnc(C(=O)NCC(C)C)c3cn2)c1F [Compound 158, 6-[3-(5-chloro-2-methoxypyridine-3-sulfonamido)-2,6-difluorophenyl]-N-(2-methylpropyl)imidazo[1,5-a]pyrazine-1-carboxamide] | < 50 nM
COc1ncc(Cl)cc1S(=O)(=O)Nc1ccc(F)c(-c2cn3cnc(C(=O)NC(C)C)c3cn2)c1F [Compound 157, 6-[3-(5-chloro-2-methoxypyridine-3-sulfonamido)-2,6-difluorophenyl]-N-isopropylimidazo[1,5-a]pyrazine-1-carboxamide] | < 50 nM
Cc1nnc(-c2ncn3c2CC[C@H](c2c(F)ccc(NS(=O)(=O)c4cc(F)cnc4C)c2F)C3)[nH]1 [Compound 134-2, N-[2,4-difluoro-3-[(6R)-1-(5-methyl-4H-1,2,4-triazol-3-yl)-5H,6H,7H,8H-imidazo[1,5-a]pyridin-6-yl]phenyl]-5-fluoro-2-methylpyridine-3-sulfonamide] | < 50 nM
Cc1ncc(Cl)cc1S(=O)(=O)Nc1ccc(F)c(-c2ccc3c(-c4ncc[nH]4)ncn3n2)c1F [Compound 95, 5-chloro-N-[2,4-difluoro-3-[5-(1H-imidazol-2-yl)imidazo[1,5-b]pyridazin-2-yl]phenyl]-2-methylpyridine-3-sulfonamide] | < 50 nM
CNC(=O)c1ncn2nc(-c3c(F)ccc(NS(=O)(=O)c4cc(F)cnc4C)c3F)ccc12 [Compound 12, 2-[2,6-difluoro-3-(5-fluoro-2-methylpyridine-3-sulfonamido)phenyl]-N-methylimidazo[1,5-b]pyridazine-5-carboxamide] | < 50 nM
COc1ncc(C#N)cc1S(=O)(=O)Nc1ccc(F)c(-c2ccc3c(-n4cnnn4)ncn3c2)c1F [Compound 75, 5-cyano-N-[2,4-difluoro-3-[1-(1,2,3,4-tetrazol-1-yl)imidazo[1,5-a]pyridin-6-yl]phenyl]-2-methoxypyridine-3-sulfonamide] | < 50 nM
Cc1ncc(Cl)cc1S(=O)(=O)Nc1ccc(F)c([C@@H]2CCc3c(-c4ncc[nH]4)ncn3C2)c1F (single isomer, unassigned) [Compound 84-2] | < 50 nM
COc1ncc(Cl)cc1S(=O)(=O)Nc1ccc(F)c(-c2ccc3c(-c4ncc(CO)[nH]4)ncn3c2)c1F [Compound 49, 5-chloro-N-(2,4-difluoro-3-[1-[4-(hydroxymethyl)-3H-imidazol-2-yl]imidazo[1,5-a]pyridin-6-yl]phenyl)-2-methoxypyridine-3-sulfonamide] | < 50 nM
Cc1ncc(Cl)cc1S(=O)(=O)Nc1ccc(F)c(-c2ccc3c(-c4ncc[nH]4)ncn3c2F)c1F [Compound 109, 5-chloro-N-[2,4-difluoro-3-[5-fluoro-1-(1H-imidazol-2-yl)imidazo[1,5-a]pyridine-6-yl]phenyl]-2-methylpyridine-3-sulfonamide] | < 50 nM
COc1ncc(Cl)cc1S(=O)(=O)Nc1ccc(F)c(-c2ccc3c(-c4nc(C#N)c[nH]4)ncn3c2)c1F [Compound 43, N-[3-[1-(4-cyano-1H-imidazol-2-yl)imidazo[1,5-a]pyridin-6-yl]-2,4-difluorophenyl]-5-chloro-2-methoxypyridine-3-sulfonamide] | < 50 nM
Cc1nnc(-c2ncn3cc(-c4c(F)ccc(NS(=O)(=O)c5cc(Cl)cnc5C)c4F)ncc23)[nH]1 [Compound 133, 5-chloro-N-[2,4-difluoro-3-[1-(5-methyl-4H-1,2,4-triazol-3-yl)imidazo[1,5-a]pyrazin-6-yl]phenyl]-2-methylpyridine-3-sulfonamide] | < 50 nM
CNC(=O)c1ncn2cc(-c3c(F)ccc(NS(=O)(=O)c4cc(C#N)cnc4C)c3F)ccc12 [Compound 9, 6-[3-(5-cyano-2-methylpyridine-3-sulfonamido)-2,6-difluorophenyl]-N-methylimidazo[1,5-a]pyridine-1-carboxamide] | < 50 nM
